Our source for the IC50 values is patent US20150031668A1, “CHROMAN DERIVATIVES AS TRPM8 INHIBITORS” (AMGEN INC., priority 2013, published 2015).

Counter-ions that a name gives are not always drawn.

For this assay, the target named is T1, human TRPM8 (Homo sapiens, UniProt Q7Z2W7).
T1 construct: expressed in transfected cells; host or cells: Chinese hamster ovary (CHO) cells, T-REx tetracycline-inducible expression system (Invitrogen); co-transfected with pcDNA3.1 aequorin
T1 sequence (Q7Z2W7 whole entry): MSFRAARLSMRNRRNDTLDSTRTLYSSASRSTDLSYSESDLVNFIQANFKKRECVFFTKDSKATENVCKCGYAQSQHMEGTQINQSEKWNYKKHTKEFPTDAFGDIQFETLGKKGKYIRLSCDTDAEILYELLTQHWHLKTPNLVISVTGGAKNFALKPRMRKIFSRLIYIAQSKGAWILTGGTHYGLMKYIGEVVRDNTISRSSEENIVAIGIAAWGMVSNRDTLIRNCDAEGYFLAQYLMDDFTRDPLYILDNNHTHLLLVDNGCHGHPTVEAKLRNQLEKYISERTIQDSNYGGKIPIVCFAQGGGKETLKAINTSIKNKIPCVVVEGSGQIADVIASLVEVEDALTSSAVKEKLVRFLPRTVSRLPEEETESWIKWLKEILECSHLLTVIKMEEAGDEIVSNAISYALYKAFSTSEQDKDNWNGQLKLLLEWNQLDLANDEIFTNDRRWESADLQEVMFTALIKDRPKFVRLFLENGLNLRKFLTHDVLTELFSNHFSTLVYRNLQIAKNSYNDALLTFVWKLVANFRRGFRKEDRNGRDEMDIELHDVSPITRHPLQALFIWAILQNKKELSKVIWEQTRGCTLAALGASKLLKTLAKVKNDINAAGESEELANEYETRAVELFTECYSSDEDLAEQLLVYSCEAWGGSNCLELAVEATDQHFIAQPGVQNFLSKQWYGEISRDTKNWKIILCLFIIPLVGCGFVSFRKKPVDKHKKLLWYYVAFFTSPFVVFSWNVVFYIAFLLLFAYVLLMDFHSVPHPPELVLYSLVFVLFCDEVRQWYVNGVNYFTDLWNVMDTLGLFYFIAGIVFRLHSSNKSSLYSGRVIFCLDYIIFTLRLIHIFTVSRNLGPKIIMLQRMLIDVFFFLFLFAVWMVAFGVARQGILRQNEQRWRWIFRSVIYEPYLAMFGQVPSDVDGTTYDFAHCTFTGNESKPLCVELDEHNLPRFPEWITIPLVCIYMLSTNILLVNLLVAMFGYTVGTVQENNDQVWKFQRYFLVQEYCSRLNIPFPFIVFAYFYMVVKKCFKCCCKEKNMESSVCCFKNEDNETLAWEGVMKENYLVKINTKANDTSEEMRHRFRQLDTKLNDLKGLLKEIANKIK
As to the kind of experiment: Luminescence readout assay for measuring intracellular calcium (aequorin, CHO cells expressing human TRPM8; icilin, L-menthol or cold activation). Type of assay: cell-based. The following applies: CHO cells expressing human TRPM8, icilin activation (1 μM), aequorin luminescence; read-out: hTRPM8 IC50. In outline: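 Activation was by 1 μM icilin, 100 μM L-menthol (test compound 2.5 min ahead) or cold buffer below 10° C (compound 1 min ahead). Calcium rise measured as aequorin luminescence in CHO cells with tetracycline-inducible human TRPM8.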
For orientation: Calcium flux is commonly read through the fluorescence of an indicator in the cells.
In general, IC50 refers to the point on the concentration scale where inhibition reaches its midpoint. `O=C(N[C@]1(c2ccc(OC(F)(F)F)c(F)c2)CCOc2cccnc21)c1ccc2nccn2c1` [Example 52, (S)-N-(4-(3-fluoro-4-(trifluoromethoxy)phenyl)-3,4-dihydro-2H-pyrano[3,2-b]pyridin-4-yl)imidazo[1,2-a]pyridine-6-carboxamide]: the IC50 turned out to be 0.016 µM.
Regarding `O=C(N[C@]1(c2ccc(OC(F)(F)F)cc2)CCOc2cccnc21)c1ccc2nsnc2c1` [Example 269, (S)-N-(4-(4-(trifluoromethoxy)phenyl)-3,4-dihydro-2H-pyrano[3,2-b]pyridin-4-yl) benzo[c][1,2,5] thiadiazole-5-carboxamide formate], the IC50 was determined as 0.024 µM.
The figure for `O=C(NC1(c2ccc(C(F)(F)F)nc2)CCOc2cccnc21)c1ccc2oc(=O)[nH]c2c1` (centres unmarked) [Example 27, 2-oxo-N-(4-(6-(trifluoromethyl)pyridin-3-yl)-3,4-dihydro-2H-pyrano[3,2-b]pyridin-4-yl)-2,3-dihydrobenzo[d]oxazole-5-carboxamide] is 0.046 µM; for `Cn1cncc1C(=O)N[C@]1(c2ccc(OC(F)(F)F)c(F)c2)CCOc2cccnc21` [Example 163, (S)—N-(4-(3-fluoro-4-(trifluoromethoxy)phenyl)-3,4-dihydro-2H-pyrano[3,2-b]pyridin-4-yl)-1-methyl-1H-imidazole-5-carboxamide 2,2,2-trifluoroacetate] it is 0.102 µM; for `O=C(N[C@]1(c2ccc(OC(F)(F)F)cc2)CCOc2cccnc21)c1n[nH]c2ncccc12` [Example 242, (S)-N-(4-(4-(trifluoromethoxy)phenyl)-3,4-dihydro-2H-pyrano[3,2-b]pyridin-4-yl)-1H-pyrazolo[3,4-b] pyridine-3-carboxamide formate] it is 0.00555 µM.
Regarding `O=C(N[C@]1(c2ccc(OC(F)(F)F)cc2)CCOc2cccnc21)c1cccc2cccnc12` [Example 221, (S)-N-(4-(4-(trifluoromethoxy)phenyl)-3,4-dihydro-2H-pyrano[3,2-b]pyridin-4-yl)quinoline-8-carboxamide formate], the IC50 came out at 0.031 µM.
As for `COC(=O)c1ccc(NC(=O)N[C@]2(c3ccc(OC(F)(F)F)c(F)c3)CCOc3cccnc32)cn1` [Example 87, (S)-methyl 5-(3-(4-(3-fluoro-4-(trifluoromethoxy)phenyl)-3,4-dihydro-2H-pyrano[3,2-b]pyridin-4-yl)ureido)picolinate], the IC50 is 0.024 µM.
With `O=C(N[C@]1(c2ccc(OC(F)(F)F)cc2)CCOc2cccnc21)c1cn2ccccc2n1` [Example 239, (S)-N-(4-(4-(trifluoromethoxy)phenyl)-3,4-dihydro-2H-pyrano[3,2-b]pyridin-4-yl)imidazo[1,2-a] pyridine-2-carboxamide formate], the IC50 was found to be 0.0346 µM.
For `O=C(Nc1cccnc1)NC1(c2ccc(C(F)(F)F)cc2)CCOc2ccccc21` (centres unmarked) [Example 70, 1-(pyridin-3-yl)-3-(4-(4-(trifluoromethyl)phenyl)chroman-4-yl)urea], the IC50 was found to be 1.35 µM.
On to `COc1ccc(C(=O)N[C@]2(c3ccc(C(F)(F)F)cc3)CCOc3cccnc32)cc1` (single isomer, unassigned) [Example 5], for which the IC50 worked out at 0.021 µM.
Turning to `O=C(N[C@]1(c2cccc(OC(F)(F)F)c2)CCOc2cccnc21)c1ccccc1` (single isomer, unassigned) [Example 17], the IC50 came to 0.06 µM.
Regarding `O=C(N[C@]1(c2ccc3ccccc3c2)CCOc2cccnc21)c1ccc(=O)[nH]c1` [Example 81, (S)-N-(4-(naphthalen-2-yl)-3,4-dihydro-2H-pyrano[3,2-b]pyridin-4-yl)-6-oxo-1,6-dihydropyridine-3-carboxamide], the IC50 stood at 0.124 µM.
The figure for `O=C(N[C@]1(c2ccc(OC(F)(F)F)c(F)c2)CCOc2cccnc21)c1ccc(C(=O)O)c(Cl)c1` [Example 197, (S)-2-chloro-4-((4-(3-fluoro-4-(trifluoromethoxy)phenyl)-3,4-dihydro-2H-pyrano[3,2-b]pyridin-4-yl)carbamoyl) benzoic acid 2,2,2-trifluoroacetate] is 0.092 µM; for `COC(=O)c1ccc(C(=O)N[C@]2(c3ccc(OC(F)(F)F)c(F)c3)CCOc3cccnc32)cc1N` [Example 188, (S)-methyl 2-amino-4-((4-(3-fluoro-4-(trifluoromethoxy)phenyl)-3,4-dihydro-2H-pyrano[3,2-b]pyridin-4-yl)carbamoyl) benzoate] it is 0.015 µM; for `O=C(O)c1ccc(C(=O)N[C@@]2(c3ccc(OC(F)(F)F)c(F)c3)COc3cccnc32)nc1` [Example 161, (R)-6-((3-(3-Fluoro-4-(trifluoromethoxy)phenyl)-2,3-dihydrofuro[3,2-b]pyridin-3-yl)carbamoyl)nicotinic acid] it is 0.042 µM.
With `Cn1cc(C(=O)NC2(c3ccc(C(F)(F)F)cc3)CCOc3cccnc32)ccc1=O` (centres unmarked) [Example 79, 1-methyl-6-oxo-N-(4-(4-(trifluoromethyl)phenyl)-3,4-dihydro-2H-pyrano[3,2-b]pyridin-4-yl)-1,6-dihydropyridine-3-carboxamide], the IC50 amounted to 0.334 µM.
The figure for `CN(C)C(=O)c1cccc(-c2ccc([C@@]3(NC(=O)c4ccc(F)cc4)CCOc4cccnc43)cc2)c1` [Example 129, (S)-4′-(4-(4-fluorobenzamido)-3,4-dihydro-2H-pyrano[3,2-b]pyridin-4-yl)-N,N-dimethyl-[1,1′-biphenyl]-3-carboxamide] is 2.6 µM; for `O=C(N[C@]1(c2ccc(OC(F)(F)F)cc2)CCOc2cccnc21)c1ccc2c(=O)[nH]ccc2c1` [Example 223, (S)-1-oxo-N-(4-(4-(trifluoromethoxy)phenyl)-3,4-dihydro-2H-pyrano[3,2-b]pyridin-4-yl)-1,2-dihydroisoquinoline-6-carboxamide formate] it is 0.01 µM; for `COC(=O)c1ccc(S(=O)(=O)N[C@]2(c3ccc(OC(F)(F)F)c(F)c3)CCOc3cccnc32)cc1` [Example 286, (S)-methyl 4-(N-(4-(3-fluoro-4-(trifluoromethoxy)phenyl)-3,4-dihydro-2H-pyrano[3,2-b]pyridin-4-yl)sulfamoyl)benzoate] it is 0.754 µM.
Consider `O=C(N[C@]1(c2ccc(-c3ccccc3O)cc2)CCOc2cccnc21)c1ccc(F)cc1` [Example 120, (S)-4-fluoro-N-(4-(2′-hydroxy-[1,1′-biphenyl]-4-yl)-3,4-dihydro-2H-pyrano[3,2-b]pyridin-4-yl)benzamide], for which the IC50 worked out at 0.524 µM.
`O=C(N[C@]1(c2ccc(OC(F)(F)F)c(F)c2)CCOc2cccnc21)c1ccc2oc(=O)[nH]c2c1` [Example 57, (S)-N-(4-(3-fluoro-4-(trifluoromethoxy)phenyl)-3,4-dihydro-2H-pyrano[3,2-b]pyridin-4-yl)-2-oxo-2,3-dihydrobenzo[d]oxazole-5-carboxamide]: the IC50 stood at 0.004 µM.
In the case of `O=C(NC1(c2ccc(Cl)c(Cl)c2)CCOc2cccnc21)c1ccc2oc(=O)[nH]c2c1` (centres unmarked) [Example 25, N-(4-(3,4-dichlorophenyl)-3,4-dihydro-2H-pyrano[3,2-b]pyridin-4-yl)-2-oxo-2,3-dihydrobenzo[d]oxazole-5-carboxamide], the IC50 was 0.019 µM.
Turning to `Cn1ncc2c(C(=O)N[C@]3(c4ccc(OC(F)(F)F)cc4)CCOc4cccnc43)cccc21` [Example 261, (S)-1-methyl-N-(4-(4-(trifluoromethoxy)phenyl)-3,4-dihydro-2H-pyrano[3,2-b]pyridin-4-yl)-1H-indazole-4-carboxamide formate], the IC50 came out at 0.032 µM.
Take `O=C(NC1(c2ccc(OC(F)(F)F)c(F)c2)CCOc2cccnc21)c1ccccc1` (centres unmarked) [Example 7, N-(4-(3-fluoro-4-(trifluoromethoxy)phenyl)-3,4-dihydro-2H-pyrano[3,2-b]pyridin-4-yl)benzamide]: the IC50 was determined as 0.032 µM.
The figure for `CCOC(=O)c1ncc(C(=O)N[C@]2(c3ccc(OC(F)(F)F)c(F)c3)CCOc3cccnc32)[nH]1` [Example 162] is 0.092 µM.
The figure for `COC(=O)c1cccc(S(=O)(=O)N[C@]2(c3ccc(OC(F)(F)F)c(F)c3)CCOc3cccnc32)c1` [Example 285, (S)-methyl 3-(N-(4-(3-fluoro-4-(trifluoromethoxy)phenyl)-3,4-dihydro-2H-pyrano[3,2-b]pyridin-4-yl)sulfamoyl)benzoate] is 0.179 µM.
As for `NC(=O)c1ccc(C(=O)N[C@]2(c3ccc(OC(F)(F)F)c(F)c3)CCOc3cccnc32)cc1` [Example 195, (S)-N1-(4-(3-fluoro-4-(trifluoromethoxy)phenyl)-3,4-dihydro-2H-pyrano[3,2-b]pyridin-4-yl) terephthalamide 2,2,2-trifluoroacetate], the IC50 came out at 0.006 µM.
As for `O=C(NC1(c2ccc(OC(F)(F)F)c(F)c2)CCOc2cccnc21)c1ccc(F)cc1` (centres unmarked) [Example 6, 4-fluoro-N-(4-(3-fluoro-4-(trifluoromethoxy)phenyl)-3,4-dihydro-2H-pyrano[3,2-b]pyridin-4-yl)benzamide], the IC50 was found to be 0.034 µM.
The figure for `O=C(Nc1ccncc1)N[C@]1(c2ccc(OC(F)(F)F)c(F)c2)CCOc2cccnc21` [Example 96, (S)-1-(4-(3-fluoro-4-(trifluoromethoxy)phenyl)-3,4-dihydro-2H-pyrano[3,2-b]pyridin-4-yl)-3-(pyridin-4-yl)urea] is 0.006 µM; for `O=C(N[C@]1(c2ccc(OC(F)(F)F)c(F)c2)CCOc2cccnc21)c1c[nH]c(C(=O)O)c1` [Example 320, (S)-4-((4-(3-fluoro-4-(trifluoro-methoxy)phenyl)-3,4-dihydro-2H-pyrano[3,2-b]pyridin-4-yl)carbamoyl)-1H-pyrrole-2-carboxylic acid] it is 3.7 µM; for `O=C(Nc1ccncn1)N[C@]1(c2ccc(OC(F)(F)F)c(F)c2)CCOc2cccnc21` [Example 89, (S)-1-(4-(3-fluoro-4-(trifluoromethoxy)phenyl)-3,4-dihydro-2H-pyrano[3,2-b]pyridin-4-yl)-3-(pyrimidin-4-yl)urea] it is 0.058 µM.
Regarding `O=C(NC1(c2ccc(C(F)(F)F)cc2)CCCc2cccnc21)c1ccccc1` (centres unmarked) [Example 29, N-(8-(4-(trifluoromethyl)phenyl)-5,6,7,8-tetrahydroquinolin-8-yl)benzamide], the IC50 came out at 0.143 µM.
